Measurements taken from patent US20260242419A1, “A CYCLIC PEPTIDE FOR TRAPPING INTERLEUKIN-1 BETA” (Merck Sharp & Dohme LLC, priority 2023, published 2026).
Non-standard residues stand in square brackets, D forms with d. Residues, ends and D or L forms follow the SMILES beside them. dPro(4R-(4-pyridylmethyl)) = O=C(O)[C@H]1C[C@@H](Cc2ccncc2)CN1; Trp(βS-Me,4-F) = C[C@@H](c1c[nH]c2cccc(F)c12)[C@H](N)C(=O)O; Bip(4'-COOH) = N[C@@H](Cc1ccc(-c2ccc(C(=O)O)cc2)cc1)C(=O)O; Ala(1-bicyclo(1.1.1)pentyl) = N[C@@H](CC12CC(C1)C2)C(=O)O; Ala(pyrimidin-5-yl) = N[C@@H](Cc1cncnc1)C(=O)O; Phe(4-COOH) = N[C@@H](Cc1ccc(C(=O)O)cc1)C(=O)O; Pro(cis-4-F) = O=C(O)[C@@H]1C[C@H](F)CN1; Ala(4-THP) = N[C@@H](CC1CCOCC1)C(=O)O; cisHyp = O=C(O)[C@@H]1C[C@H](O)CN1; 4Pal = N[C@@H](Cc1ccncc1)C(=O)O; αMeD = C[C@](N)(CC(=O)O)C(=O)O; d(αMeS) = C[C@@](N)(CO)C(=O)O; Dab = NCC[C@H](N)C(=O)O; Aib = CC(C)(N)C(=O)O

What follows are molecules tested against T1, IL-1β (Homo sapiens, UniProt P01584) (assay: IL-6 assay in MRC5 cells: inhibition of IL-1β induced IL-6 secretion (AlphaLISA)). Conditions: inhibition of IL-1β induced IL-6 secretion in MRC5 cells; read-out: MRC5 IC50.
T1 construct: purchased BioLegend 579404
T1 sequence (P01584 117-269): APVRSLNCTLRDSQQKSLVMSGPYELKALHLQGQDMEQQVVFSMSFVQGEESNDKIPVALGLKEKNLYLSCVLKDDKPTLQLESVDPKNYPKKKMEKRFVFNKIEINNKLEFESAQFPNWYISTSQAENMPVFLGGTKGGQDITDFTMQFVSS
Assay type: cell-based
Method in brief: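 Compound was pre-incubated 1 h at ambient temperature with recombinant human IL-1β at 2λ EC80 before adding human lung fibroblast MRC5 cells (3000/well) in EMEM with 0.025% BSA. After overnight culture at 37 °C, 5% CO2, secreted IL-6 in conditioned medium was measured by AlphaLISA; IC50 from 4-parameter logistic fits.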

| IC50 [nM] | Compound |
| --- | --- |
| 0.019 | C[C@@H](c1c[nH]c2cccc(F)c12)[C@@H]1NC(=O)[C@@H]2C[C@H](O)CN2C(=O)CNC(=O)[C@H](Cc2ccc(C(=O)O)cc2)NC(=O)[C@H](CC23CC(C2)C3)NC(=O)[C@H](Cc2ccc(-c3ccc(C(=O)O)cc3)cc2)NC(=O)[C@H]2C[C@@H](Cc3ccncc3)CN2C(=O)CNC(=O)[C@H](CCN)NC(=O)[C@H](CCC(N)=O)NC(=O)[C@H](Cc2cncnc2)NC(=O)[C@@](C)(CO)NC(=O)[C@H](Cc2c[nH]c3ccccc23)NC(=O)[C@H](CO)NC(=O)C(C)(C)NC1=O [Example 190] (cyclo([Bip(4'-COOH)][Ala(1-bicyclo(1.1.1)pentyl)][Phe(4-COOH)]G[cisHyp][Trp(βS-Me,4-F)][Aib]SW[d(αMeS)][Ala(pyrimidin-5-yl)]Q[Dab]G[dPro(4R-(4-pyridylmethyl))])) |
| 0.021 | C[C@@H](c1c[nH]c2cccc(F)c12)[C@@H]1NC(=O)[C@@H]2C[C@H](O)CN2C(=O)CNC(=O)[C@H](Cc2ccc(C(=O)O)cc2)NC(=O)[C@H](CC23CC(C2)C3)NC(=O)[C@H](Cc2ccc(-c3ccc(C(=O)O)cc3)cc2)NC(=O)[C@H]2C[C@@H](Cc3ccncc3)CN2C(=O)CNC(=O)[C@H](CCN)NC(=O)[C@H](CCC(N)=O)NC(=O)[C@H](CC2CCOCC2)NC(=O)[C@@](C)(CO)NC(=O)[C@H](Cc2c[nH]c3ccccc23)NC(=O)[C@H](CO)NC(=O)C(C)(C)NC1=O [Example 192] (cyclo([Bip(4'-COOH)][Ala(1-bicyclo(1.1.1)pentyl)][Phe(4-COOH)]G[cisHyp][Trp(βS-Me,4-F)][Aib]SW[d(αMeS)][Ala(4-THP)]Q[Dab]G[dPro(4R-(4-pyridylmethyl))])) |
| 0.014 | C[C@@H](c1c[nH]c2cccc(F)c12)[C@@H]1NC(=O)[C@@H]2C[C@H](O)CN2C(=O)CNC(=O)[C@H](Cc2ccc(C(=O)O)cc2)NC(=O)[C@H](Cc2ccncc2)NC(=O)[C@H](Cc2ccc(-c3ccc(C(=O)O)cc3)cc2)NC(=O)[C@H]2C[C@@H](Cc3ccncc3)CN2C(=O)CNC(=O)[C@H](CCN)NC(=O)[C@H](CCC(N)=O)NC(=O)[C@H](Cc2cncnc2)NC(=O)C(C)(C)NC(=O)[C@H](Cc2c[nH]c3ccccc23)NC(=O)[C@H](CO)NC(=O)C(C)(C)NC1=O [Example 194] (cyclo([Bip(4'-COOH)][4Pal][Phe(4-COOH)]G[cisHyp][Trp(βS-Me,4-F)][Aib]SW[Aib][Ala(pyrimidin-5-yl)]Q[Dab]G[dPro(4R-(4-pyridylmethyl))])) |

The remaining lines, values behind:

| Compound | IC50 [nM] |
| --- | --- |
| C[C@@H](c1c[nH]c2cccc(F)c12)[C@@H]1NC(=O)[C@@H]2C[C@H](O)CN2C(=O)CNC(=O)[C@H](Cc2ccc(C(=O)O)cc2)NC(=O)[C@H](CC23CC(C2)C3)NC(=O)[C@H](Cc2ccc(-c3ccc(C(=O)O)cc3)cc2)NC(=O)[C@H]2C[C@@H](Cc3ccncc3)CN2C(=O)CNC(=O)[C@H](CCN)NC(=O)[C@H](CCC(N)=O)NC(=O)[C@H](CC2CCOCC2)NC(=O)[C@](C)(CC(=O)O)NC(=O)[C@H](Cc2c[nH]c3ccccc23)NC(=O)[C@H](CO)NC(=O)C(C)(C)NC1=O [Example 191] (cyclo([Bip(4'-COOH)][Ala(1-bicyclo(1.1.1)pentyl)][Phe(4-COOH)]G[cisHyp][Trp(βS-Me,4-F)][Aib]SW[αMeD][Ala(4-THP)]Q[Dab]G[dPro(4R-(4-pyridylmethyl))])) | 0.021 |
| C[C@@H](c1c[nH]c2cccc(F)c12)[C@@H]1NC(=O)[C@@H]2C[C@H](F)CN2C(=O)CNC(=O)[C@H](Cc2ccc(C(=O)O)cc2)NC(=O)[C@H](CC23CC(C2)C3)NC(=O)[C@H](Cc2ccc(-c3ccc(C(=O)O)cc3)cc2)NC(=O)[C@H]2C[C@@H](Cc3ccncc3)CN2C(=O)CNC(=O)[C@H](CCN)NC(=O)[C@H](CCC(N)=O)NC(=O)[C@H](CC2CCOCC2)NC(=O)[C@](C)(CC(=O)O)NC(=O)[C@H](Cc2c[nH]c3ccccc23)NC(=O)[C@H](CO)NC(=O)C(C)(C)NC1=O [Example 193] (cyclo([Bip(4'-COOH)][Ala(1-bicyclo(1.1.1)pentyl)][Phe(4-COOH)]G[Pro(cis-4-F)][Trp(βS-Me,4-F)][Aib]SW[αMeD][Ala(4-THP)]Q[Dab]G[dPro(4R-(4-pyridylmethyl))])) | 0.011 |
